Data from PMC11359963 (Pharmaceutics, 2024).
Non-standard residues stand in square brackets, D forms with d. Residues, ends and D or L forms follow the SMILES beside them. β3hF = N[C@H](CC(=O)O)Cc1ccccc1

Legend:
TNF-α = assay: LPS-induced TNF-α production in human whole blood cell cultures (WEHI 164.13 bioassay); type: cell-based; settings: for % of Inhibition vs. DMSO Control / TNF-α: LPS 1 µg/mL; for % of Inhibition vs. DMSO Control: TNF-α production; for TNF-α: whole blood diluted 10×, overnight, single cultures; for Suppressive Effect on TNF-α Production: summary of structure-activity relationship, LPS-induced, whole blood
Description: Human whole blood was diluted 10× with RPMI-1640 medium and distributed to 24-well culture plates in 1 mL aliquots. LPS was added to the culture at a concentration of 1 µg/mL. The studied peptides were used at concentrations of 1, 10, and 100 µg/mL. After overnight incubation, the supernatants were harvested and frozen at −20 °C until cytokine determination. TNF-α activity was determined using a bioassay with the highly sensitive cell line WEHI 164.13 [29]. Briefly, cells were seeded at a concentration of 2 × 10^4 cells/well in quadruplicate. Increasing dilutions of the assayed supernatant were mixed with the target cells in the presence of actinomycin D (1 µg/mL). After 20 h of incubation, MTT was added into the wells, and the cultures were incubated for an additional 4 h. Next, a lysing buffer (20% SDS with 50% DMF, pH 4.7) was added and the OD at 550/630 nm in a spectrophotometer was measured after 24 h. The detection limit of the assay was about 2.5 pg/mL. One unit of TNF-α activity was defined as an inverse of supernatant dilution where 50% cell death took place. No statistics were applied here since the data were derived from single cultures (wells).

murine leukemia L1210 = settings: 100 μg/mL; unpublished
[1] = system: carrageenan-induced inflammation of the air pouch, mouse model; assay: Carrageenan-induced inflammation of air pouches; type: in vivo; settings: 100 µg/mouse into air pouch; for Eosinophils in peripheral blood: control mice 9.6%; for Neutrophils in peripheral blood: control mice 37%; for Degranulated mastocytes in air pouches: control untreated air pouches 89.7%
From the text: (§1) C57Bl/6 female mice, 8–10 weeks old and weighing 19–22 g, were delivered by the Breeding Centre of Laboratory Animals at the Institute of Occupational Medicine, Łódź, Poland and used for this study. Mice had free access to granulated food and filtered water. The local ethics committee at the Institute of Immunology and Experimental Therapy, Wrocław, Poland, approved this study (permission #37/2012).
(§2) Blood smears were made on microscopic glasses, and the preparations were dried and stained with Giemsa and May–Grünwald dyes. The blood picture was evaluated in a light microscope at 1000× magnification in immersion oil. Up to 100 cells were counted per preparation. The results were shown as a percentage of mean values of respective cell types: mature neutrophils, band forms of neutrophils, eosinophils, lymphocytes, and monocytes.
Air pouches were formed by a subdermal injection into the dorsal area (under halothane anesthesia) of 5 mL of air (23 G × 11/4 needle, 5 mL syringe). On the next day, the air pouches were supplemented by 1 mL of air and injected with 0.5 mL of 1% carrageenan solution in PBS. The peptides were dissolved in DMSO (1 mg/100 µL DMSO) and supplemented with 0.9% NaCl solution to a volume of 0.2 mL. P03 and 4B8M peptides were injected into air pouches at a dose of 100 µg/mouse 30 min after carrageenan administration. BG mice received the respective amount of DMSO in 0.9% NaCl. Control mice were given only carrageenan solution plus the respective amount of DMSO. The next day, the mice were bled to perform blood smears and sacrificed. A total of 1 mL of 0.9% NaCl was injected into air pouches and the content aspirated. From this source, a total number was determined, the rest were centrifuged, and from a cell pellet, the smears were performed on microscopic glasses and stained with Giemsa and May Grunwald reagents. The cell composition of air pouch exudates was analyzed and the results were shown as a percentage (mean values of the respective cell types: neutrophils, band forms of neutrophils, eosinophils, basophils, lymphocytes, macrophages, and mastocytes).
Five to nine mice per group were used in the experiments. Results (where applicable) are presented as mean values ± standard error (SE). The Brown–Forsyth test was used to determine the homogeneity of variance between groups. When the variance was homogenous, analysis of variance (one-way ANOVA) was applied, followed by post hoc comparisons with Tukey’s test to estimate the significance of the differences between groups. Nonparametric data were evaluated with the Kruskal–Wallis analysis of variance (ANOVA of K–W), as indicated in the text. Significance was determined at p < 0.05. Statistical analysis was performed using […] 7.0 for Windows.

[2] = 100 μg/mL; unpublished
[3] = system: contact sensitivity to oxazolone mouse model; assay: Contact sensitivity to oxazolone; type: in vivo; settings: 0.1% ointment on auricles
From the text: as §1, §2
The test was performed as described by others, with some modifications. Mice were shaved on the abdomen and after 24 h, 100 µL of 0.5% oxazolone in acetone was applied topically. […] The ear edema was measured after 24 h using a spring caliper. […]
Five to nine mice per group were used in the experiments. […] Nonparametric data were evaluated with the Kruskal–Wallis analysis of variance (ANOVA of K–W), as indicated in the text. Significance was determined at p < 0.05. […]

human PBMCs = assay: Proliferative response of PBMC to PHA (MTT); type: cell-based; settings: summary of structure-activity relationship; PHA-induced PBMC proliferation, 1-100 µg/mL
Description: PBMCs were isolated by centrifugation on a Ficoll-uropoline gradient (density 1.077 g/mL) (Lymphoprep, PAA Laboratories, Linz, Austria), at 800× g for 20 min at 4 °C. The interphase cells were then washed three times with Hanks’ medium and re-suspended in the culture medium (RPMI-1640 with 10% addition of FCS, L-glutamine, sodium pyruvate, 2-mercaptoetanol, and the antibiotics streptomycin and penicillin) at a density of 2 × 10^6 cells/mL.
The isolated PBMCs were distributed into 96-well flat-bottom plates in 100 µL aliquots (2 × 10^5 cells/well). PHA was used at a concentration of 5 µg/mL. The compounds were tested at concentrations of 1, 10, and 100 µg/mL. DMSO at appropriate dilutions served as a control solvent. After a 4-day incubation in a cell culture incubator, the proliferative response of the cells was determined by the colorimetric MTT method [28] in a Dynatech 5000 spectrophotometer. Data (OPSYS MR Dynex Technologies, Chantilly, VA, USA) are presented as a mean optical density (OD) at 550 nm, with a reference wavelength of 630 nm, from quadruplicate wells ± standard error (SE). The control cultures contained no PHA or PHA without the studied compounds.
The assay was performed by the MTT colorimetric method [29]. […] After additional overnight incubation, the OD was measured at 550/630 nm (Dynatech 5000 spectrophotometer).

mouse splenocytes = assay: ConA-induced proliferation of mouse splenocytes (unpublished data); type: cell-based; settings: other data (unpublished)

O=C1C[C@H](Cc2ccccc2)NC(=O)[C@@H]2CCCN2C(=O)[C@H]2CCCN2C(=O)[C@H](Cc2ccccc2)N1 [P03, cyclo-[D-Pro-Pro-β^3-HoPhe-Phe-]] (cyclo([dP]P[β3hF]F))
% of Inhibition vs. DMSO Control (TNF-α; peptide 1 µg/mL): 25.9%
TNF-α (TNF-α; peptide 1 µg/mL): 6052 pg/mL
% of Inhibition vs. DMSO Control (TNF-α; peptide 10 µg/mL): 34.8%
TNF-α (TNF-α; peptide 10 µg/mL): 5222 pg/mL
Suppressive Effect on TNF-α Production (TNF-α): strong
Inhibition of growth of L1210 cells (murine leukemia L1210): 34%
Eosinophils in peripheral blood [1]: 2.0%
Neutrophils in peripheral blood [1]: 23%
Degranulated mastocytes in air pouches [1]: 28.7%
Inhibition of growth of A431 cells [2]: 15%
Percentage of all myeloid cell types in circulating blood [3]: significantly reduced
Suppressive Effect on Cell Proliferation (human PBMCs): significant at 100 µg/mL

cyclo- [P02, cyclo-[D-Pro-D-Pro-β^3-HoPhe-D-Phe-]]
% of Inhibition vs. DMSO Control (TNF-α; peptide 1 µg/mL): 19.0%
TNF-α (TNF-α; peptide 1 µg/mL): 6614 pg/mL
% of Inhibition vs. DMSO Control (TNF-α; peptide 10 µg/mL): 20.7%
TNF-α (TNF-α; peptide 10 µg/mL): 6346 pg/mL
Suppressive Effect on TNF-α Production (TNF-α): small

cyclo-[D-Pro-D-Pro-D-β^3-HoPhe-D-Phe-] [P06]
% of Inhibition vs. DMSO Control (TNF-α; peptide 1 µg/mL): 1.6%
TNF-α (TNF-α; peptide 1 µg/mL): 8033 pg/mL
% of Inhibition vs. DMSO Control (TNF-α; peptide 10 µg/mL): 4.4%
TNF-α (TNF-α; peptide 10 µg/mL): 7658 pg/mL
Suppressive Effect on TNF-α Production (TNF-α): absent

cyclo-[D-Pro-D-Pro-β^3-HoPhe-Phe-] (head to tail) [P07]
% of Inhibition vs. DMSO Control (TNF-α; peptide 1 µg/mL): 21.0%
TNF-α (TNF-α; peptide 1 µg/mL): 6453 pg/mL
% of Inhibition vs. DMSO Control (TNF-α; peptide 10 µg/mL): 9.0%
TNF-α (TNF-α; peptide 10 µg/mL): 7284 pg/mL
Suppressive Effect on TNF-α Production (TNF-α): small

cyclo-[Pro-D-Pro-β^3-HoPhe-Phe-] (head to tail) [P05]
% of Inhibition vs. DMSO Control (TNF-α; peptide 1 µg/mL): 12.8%
TNF-α (TNF-α; peptide 1 µg/mL): 7123 pg/mL
% of Inhibition vs. DMSO Control (TNF-α; peptide 10 µg/mL): 10.0%
TNF-α (TNF-α; peptide 10 µg/mL): 7203 pg/mL

cyclo-[Pro-Pro-D-β^3-HoPhe-Phe-] (head to tail) [P04]
% of Inhibition vs. DMSO Control (TNF-α; peptide 1 µg/mL): 33.1%
TNF-α (TNF-α; peptide 1 µg/mL): 5463 pg/mL
% of Inhibition vs. DMSO Control (TNF-α; peptide 10 µg/mL): 33.8%
TNF-α (TNF-α; peptide 10 µg/mL): 5302 pg/mL
Suppressive Effect on TNF-α Production (TNF-α): strong

cyclo[Pro-Pro-β^3-HoPhe-D-Phe-] (head to tail) [P01]
% of Inhibition vs. DMSO Control (TNF-α; peptide 1 µg/mL): 14.1%
TNF-α (TNF-α; peptide 1 µg/mL): 7016 pg/mL
% of Inhibition vs. DMSO Control (TNF-α; peptide 10 µg/mL): 28.1%
TNF-α (TNF-α; peptide 10 µg/mL): 5757 pg/mL

cyclo[Pro-Pro-β^3-HoPhe-Phe-] (head to tail) [P00, cyclo-[Pro-Pro-β^3-HoPhe-Phe-], reference compound]
Inhibition of concanavalin A (ConA)-induced proliferation of mouse splenocytes (mouse splenocytes): moderate inhibition
% of Inhibition vs. DMSO Control (TNF-α; peptide 1 µg/mL): 9.8%
TNF-α (TNF-α; peptide 1 µg/mL): 7364 pg/mL
% of Inhibition vs. DMSO Control (TNF-α; peptide 10 µg/mL): 10.4%
TNF-α (TNF-α; peptide 10 µg/mL): 7176 pg/mL
Eosinophils in peripheral blood [1]: 3.4%
Neutrophils in peripheral blood [1]: 31.5%
Degranulated mastocytes in air pouches [1]: 39.5%
